This note sets out measurements from patent US20250313560A1, “Novel bicyclic benzylamido pyridine derivatives as SOS1 inhibitors” (Boehringer Ingelheim International GmbH, priority 2024, published 2025).

In one data set the target is SOS1 and KRAS G12C (Homo sapiens (Human), UniProt Q07889). As to the kind of experiment: KRAS::SOS1 AlphaScreen binding assay (KRAS G12C). Conditions: average of at least two measurements.
In the next data set the target is SOS1 and KRAS G12D (Homo sapiens (Human), UniProt Q07889). As to the kind of experiment: KRAS::SOS1 AlphaScreen binding assay (KRAS G12D). Conditions: average of at least two measurements. On the technique in general: Alpha assays give light when donor and acceptor beads are brought close together.
Sequence of SOS1 and KRAS G12D (Q07889 564-1049, stated change not applied): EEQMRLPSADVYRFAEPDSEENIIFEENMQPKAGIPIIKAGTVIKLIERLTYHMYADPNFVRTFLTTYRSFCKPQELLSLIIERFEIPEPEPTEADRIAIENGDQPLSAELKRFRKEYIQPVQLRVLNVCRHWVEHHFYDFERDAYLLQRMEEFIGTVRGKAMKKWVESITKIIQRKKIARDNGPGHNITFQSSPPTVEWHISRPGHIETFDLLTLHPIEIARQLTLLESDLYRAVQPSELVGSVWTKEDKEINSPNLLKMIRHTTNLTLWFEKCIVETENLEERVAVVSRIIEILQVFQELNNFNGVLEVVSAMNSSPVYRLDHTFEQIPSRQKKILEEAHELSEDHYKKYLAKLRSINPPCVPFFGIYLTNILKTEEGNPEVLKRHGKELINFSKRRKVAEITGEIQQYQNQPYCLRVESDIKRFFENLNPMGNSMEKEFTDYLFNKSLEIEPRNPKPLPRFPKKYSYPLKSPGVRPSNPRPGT
For data set [1], the system named is ERK phosphorylation in NCI-H358 SOS2 KO cells (KRAS G12C). Put plainly: Erk phosphorylation assay. It counts as cell-based, human. Conditions: Homo sapiens, NCI-H358, NCI-H358 SOS2 KO cells, EGF stimulated; average of at least two measurements; read-out: pERK IC50. An outline of the steps:
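NCI-H358 SOS2 KO cells (KRAS G12C) in DMEM/2% FBS were pretreated 50 min with compound, then stimulated with EGF (approx. 8 ng/mL) for 10-15 min. pERK1/2 (Thr202/Tyr204) measured in lysates by AlphaLISA SureFire; IC50 from variable-slope fit, averaged over at least two measurements.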

The target of another data set is P450 3A4 (Homo sapiens (Human), UniProt P08684). Put plainly: Cytochrome P450 isoenzyme inhibition assay (P450 3A4, midazolam). The following applies: human liver microsomes, Midazolam as substrate; read-out: CYP3A4 inhibition IC50. It counts as in vitro ADME. The method, boiled down: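 Midazolam (5 μM) hydroxylation by human liver microsomes (0.1 mg/ml) in 0.1 M TRIS with 5 mM MgCl2, started with 1 mM NADPH. Five compound concentrations in duplicate, e.g. top 50 μM with 1:4 dilutions. Metabolite quantified by LC-MS/MS against internal standard; IC50 from inhibition relative to no-compound control.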
Sequence of P450 3A4 (P08684 whole entry): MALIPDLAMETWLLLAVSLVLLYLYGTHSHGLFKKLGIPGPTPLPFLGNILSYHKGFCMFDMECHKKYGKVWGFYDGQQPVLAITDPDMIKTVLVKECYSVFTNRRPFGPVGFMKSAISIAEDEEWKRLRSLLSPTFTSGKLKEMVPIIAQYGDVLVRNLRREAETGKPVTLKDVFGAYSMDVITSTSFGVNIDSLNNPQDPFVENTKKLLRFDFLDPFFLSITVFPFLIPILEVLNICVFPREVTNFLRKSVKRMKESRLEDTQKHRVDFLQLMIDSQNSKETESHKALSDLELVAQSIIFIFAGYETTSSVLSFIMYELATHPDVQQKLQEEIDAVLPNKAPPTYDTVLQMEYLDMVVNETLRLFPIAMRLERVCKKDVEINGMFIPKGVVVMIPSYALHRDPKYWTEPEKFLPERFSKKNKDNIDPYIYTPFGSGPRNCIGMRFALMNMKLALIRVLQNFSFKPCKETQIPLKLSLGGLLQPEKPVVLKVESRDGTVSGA

The target in another data set is CYP3A4 (Homo sapiens (Human), UniProt P08684). Put plainly: Mechanism-based inhibition of CYP3A4 assay (MBI 3A4). It counts as in vitro ADME. The following applies: human, human liver microsomes, probe midazolam 15 μM (hydroxy-midazolam formation), midazolam substrate, hydroxy-midazolam formation after 30 min preincubation relative to 0 min, read-out: MBI inhibition % ctrl. [%] with MDZ. As to the method:
Mechanism-Based Inhibition of CYP3A4 assay (MBI 3A4): The mechanism-based inhibition towards CYP3A4 is assayed in human liver microsomes with midazolam as substrate. The test compounds and water control (wells w/o test compound) are preincubated in presence of NADPH (1 mM) with human liver microsomes (0.2 mg/mL) at a concentration of 0, 5 and 25 μM for 0, 10 and 30 min. After preincubation, the incubate is diluted 1:10 (to 0.02 mg/mL) and the substrate midazolam (15 μM) is added for the main incubation (10 min). The main incubation is quenched with ACN and the formation of hydroxy-midazolam is quantified via LC/MS-MS. The formation of hydroxy-midazolam from the 30 min preincubation relative to the formation from the 0 min preincubation is used as a readout. Values of less than 100% mean that the substrate midazolam is metabolized to a lower extent upon 30 min preincubation compared to 0 min preincubation. In general, low effects upon 30 min preincubation are desired (corresponding to values close to 100%/not different to the values determined with water control).
Table 5: Mechanism-based inhibition of P450 isoenzyme 3A4 with midazolam as substrate.
In general terms: Liver microsomes are vesicles of endoplasmic reticulum, rich in cytochrome P450 enzymes.

The test system of another data set is human hepatocytes. As to the kind of experiment: Metabolic stability in human hepatocytes. Conditions: 1 μM test compound, 50% human serum, percentage of liver blood flow.

The IC50 is the concentration needed to halve the response being measured. As usually defined, the inhibition is the drop in the measured response relative to a control, in per cent.

Sequence of SOS1 and KRAS G12C (Q07889 564-1049, stated change not applied): as the sequence (Q07889 564-1049, stated change not applied) above
Sequence of CYP3A4 (P08684 whole entry): as the sequence (P08684 whole entry) above
Procedure for human hepatocytes: The metabolic degradation of a test compound is performed with hepatocytes in suspension. After recovery from cryopreservation, human hepatocytes are diluted in Dulbecco's modified eagle medium (supplemented with 3.5 μg glucagon/500 mL, 2.5 mg insulin/500 mL, 3.75 mg hydrocortisone/500 mL, 50% human serum) to obtain a final cell density of 1.0×10^6 cells/mL. Following a preincubation in a cell culture incubator (37° C., 10% CO2), test compound dissolved in DMSO is mixed with the hepatocyte suspension, resulting in a final test compound concentration of 1 μM and a final DMSO concentration of 0.05%.
The cell suspension is incubated at 37° C. (cell culture incubator, horizontal shaker) and samples are removed from the incubation after 0, 0.5, 1, 2, 4 and 6 hours. Samples are quenched with acetonitrile (containing internal standard) and pelleted by centrifugation. The supernatant is transferred to a deep-well plate and prepared for analysis of decline of parent compound by HPLC-MS/MS.
The percentage of remaining test compound is calculated using the peak area ratio (test compound/internal standard) of each incubation time point relative to the time point 0 peak area ratio. The log-transformed data are plotted versus incubation time, and the absolute value of the slope obtained by linear regression analysis is used to estimate in vitro half-life (T1/2).
CL_[sequence]_IN VIVO[mL/min/kg]=(CL_[sequence][μL/min/10^6cells]×hepatocellularity[10^6cells/g liver]×liver factor[g/kg body weight])/1000
Hepatic in vivo blood clearance (CL) is predicted according to the well-stirred liver model considering an average liver blood flow (QH) of 20.7 mL/min/kg:
CL[mL/min/kg]=CL_[sequence]_IN VIVO[mL/min/kg]×hepatic blood flow[mL/min/kg]/(CL_[sequence]_IN VIVO[mL/min/kg]+hepatic blood flow[mL/min/kg])
Results are expressed as percentage of hepatic blood flow:
QH[%]=CL[mL/min/kg]/hepatic blood flow[mL/min/kg])

Regarding `C[C@@H](NC(=O)c1cc([C@]2(O)CC[C@@H](N3CC[C@H](F)C3)CC2)c2ncnn2c1)c1cccc(C(F)(F)F)c1F` [Example E71], the IC50 on SOS1 and KRAS G12C was 79 nM; at SOS1 and KRAS G12D, 79 nM; in data set [1] it was 196 nM; at P450 3A4 it was above 50 µM. At CYP3A4, the inhibition at 30 min turned out to be 94%. The “Hepatic clearance - QH[%] in human hepatocytes” value (shortened to “Hepatic clearance - QH[%]”) in the data set on human hepatocytes is given as 7%.
For `C[C@@H](NC(=O)c1cc([C@H]2CC[C@H](N3CCC[C@H](O)C3)CC2)c2ncnn2c1)c1cccc(C(F)(F)F)c1F` [Example E67], the IC50 on SOS1 and KRAS G12C is 33 nM; on SOS1 and KRAS G12D it was 33 nM; in data set [1], 46 nM; on P450 3A4 it was above 50 µM. Besides, the inhibition at 30 min at CYP3A4 amounted to 95%. Further, the “Hepatic clearance - QH[%]” value with human hepatocytes was found to be 10%.
Regarding `C[C@@H](O)CNC1CCN(c2cc(C(=O)N[C@H](C)c3cccc(C(F)(F)F)c3F)cn3ncnc23)CC1` [Example E39], the IC50 on SOS1 and KRAS G12C was 53 nM; at SOS1 and KRAS G12D, 54 nM; in data set [1] it was 251 nM; at P450 3A4, above 50 µM. For the same compound, the inhibition at 30 min at CYP3A4 is 75%. In the data set with human hepatocytes, the “Hepatic clearance - QH[%]” value came to 43%.
`C[C@@H](NC(=O)c1cc(N2CCC(N3CCC[C@H](O)C3)CC2)c2ncnn2c1)c1cccc(C(F)(F)F)c1F` [Example E44]: the IC50 at SOS1 and KRAS G12C was 63 nM; at SOS1 and KRAS G12D it was 42 nM; in data set [1] it was 58 nM; on P450 3A4, above 50 µM. Moreover, the inhibition at 30 min at CYP3A4 was found to be 95%. The “Hepatic clearance - QH[%]” value with human hepatocytes is 16%.
For the compound `Cc1nc2c([C@H]3CC[C@H](N4CCC[C@H](O)C4)CC3)cc(C(=O)N[C@H](C)c3cccc(C(F)F)c3F)cn2n1` [Example E85], the IC50 is 37 nM on SOS1 and KRAS G12C; 24 nM at SOS1 and KRAS G12D; 158 nM in data set [1]; above 50 µM on P450 3A4. Also, the inhibition at 30 min on CYP3A4 stood at 102%. Moreover, the “Hepatic clearance - QH[%]” value with human hepatocytes came out at 14%.
On to `C[C@H](CO)NC1CCN(c2cc(C(=O)N[C@H](C)c3cccc(C(F)(F)F)c3F)cn3ncnc23)CC1` [Example E54], for which the half-maximal inhibitory concentration (IC50) was 39 nM at SOS1 and KRAS G12C; 31 nM at SOS1 and KRAS G12D; 186 nM in data set [1]; above 50 µM on P450 3A4. In addition, on CYP3A4, the inhibition at 30 min was found to be 85%. Further, the “Hepatic clearance - QH[%]” value in the data set with human hepatocytes is listed as 12%.
On to `C[C@@H](NC(=O)c1cc(N2CCC(NC3COCC3O)CC2)c2ncnn2c1)c1cccc(C(F)F)c1F` (single isomer, unassigned) [Example cis-E16a], for which the IC50 is 45 nM at SOS1 and KRAS G12C; 41 nM on SOS1 and KRAS G12D; 320 nM in data set [1]; above 50 µM on P450 3A4. Further, the inhibition at 30 min on CYP3A4 amounted to 92%. Besides, the “Hepatic clearance - QH[%]” value in the data set with human hepatocytes turned out to be 32%.
Take `C[C@@H](NC(=O)c1cc(N2CCC(N3CCC[C@H]3CO)CC2)c2ncnn2c1)c1cccc(C(F)(F)F)c1F` [Example E31]: the half-inhibitory concentration (IC50) on SOS1 and KRAS G12C was 33 nM; on SOS1 and KRAS G12D, 28 nM; in data set [1] it was 153 nM; on P450 3A4 it was above 50 µM. Besides, at CYP3A4, the inhibition at 30 min was 91%. For the same compound, the “Hepatic clearance - QH[%]” value with human hepatocytes was 13%.
For the compound `C[C@@H]1C[C@@H](O)CN1[C@H]1CC[C@H](c2cc(C(=O)N[C@H](C)c3cccc(C(F)F)c3F)cn3ncnc23)CC1` [Example E62], the IC50 on SOS1 and KRAS G12C is 22 nM; on SOS1 and KRAS G12D, 15 nM; in data set [1], 315 nM; at P450 3A4 it was above 50 µM. For the same compound, on CYP3A4, the inhibition at 30 min is 98%. In the data set with human hepatocytes, the “Hepatic clearance - QH[%]” value was 9%.
For the compound `Cc1c([C@@H](C)NC(=O)c2cc(N3CCC4(CCCN4C)CC3)c3nnc(C)n3c2)cccc1C(F)(F)F` [Example E80], the IC50 is 37 nM at SOS1 and KRAS G12C; 27 nM at SOS1 and KRAS G12D; 213 nM in data set [1]; above 50 µM at P450 3A4. Moreover, the inhibition at 30 min on CYP3A4 stood at 88%. Besides, the “Hepatic clearance - QH[%]” value in the data set with human hepatocytes was below 4%.
